Results: US20230210857A1, “RESPIRATORY STIMULANT PARENTERAL FORMULATIONS” (Enalare Therapeutics Inc., priority 2021, published 2023)

Assays:
Format in all cases: physicochemical
[1] = pKa and theoretical free base solubility
[2] = Stability as a function of pH 2-6 (1 mg/mL, 0.25 mg/mL at pH 6, in ~10 mM citric acid/glycine buffers)
Text: Thus, the inventors believe that the solubility of the drug becomes inadequate for the intended product concentration above about pH 3.6. However, the drug product will be diluted prior to infusion and then intravenously infused slowly, and such a low pH is unlikely to present a safety or patient comfort issue, but stability of the drug in solution could be an issue at such a low pH. The purpose of this experiment was to assess the stability of the drug as a function of pH.
A key consideration in such an experiment is the concentration of drug and buffer used. Use of a buffer is essential since the data is meaningless if the pH shifts dramatically during the experiment. However, it is desirable to keep the buffer at minimal strength to minimize the impact of buffer catalysis. Buffer strength can be minimized by keeping the drug concentration low. Keeping the drug concentration low also minimizes confounding the data with solubility limits (i.e. the drug precipitating out of solution).
Methodology: Buffer solutions containing ˜10 mM each of citric acid and glycine in the pH range 2-6 were prepared by titrating 250 mL of a single stock containing both buffer agents with 1N NaOH/1N HCl and removing 50 mL aliquots at predetermined pH values. Solutions at 1 mg/mL were prepared in buffers of pH 2-5 by dissolving ˜25 mg of Compounds having the active agent (N-(4,6-Bis-n-propylamino-[1,3,5]triazin-2-yl)-O,N-dimethyl-hydroxylamine) H2SO4 in ˜23 mL of a given buffer, adjusting the pH to the target and making up the volume to 25.0 mL in a volumetric flask. The solution at pH 6 was prepared similarly but at a lower drug concentration of 0.25 mg/mL using 6.68 mg of Compounds having the active agent (N-(4,6-Bis-n-propylamino-[1,3,5]triazin-2-yl)-O,N-dimethyl-hydroxylamine) H2SO4.
Each of the buffered solutions were filtered through a 0.2 μm polyether sulfone syringe filter into a volumetric flask, which had been previously rinsed with 70% ethanol and dried in a laminar flow hood. Following filtration, each buffered solution was split into 10 aliquots (9 aliquots of 2.5 mL each and 1 aliquot of 2 mL) in 5 mL serum vials previously rinsed with 70% ethanol and dried in a laminar flow hood. Filtration and preparation of aliquots were performed in a laminar flow hood. The 2 mL aliquot of each buffered solution was submitted for T0 analysis (HPLC assay and related substances). Of the nine 2.5 mL aliquots, three aliquots were stored at each 40° C. and 60° C., two aliquots were stored at 25° C. and one aliquot was stored at −70° C. Samples stored at 40° C. and at 60° C. were evaluated for physical appearance, pH, assay and related substances after 1 week, 2 weeks and 4 weeks of storage. Samples at 25° C. and −70° C. served as controls to be analyzed if necessary.
The pH values for all the samples remained relatively constant for up to 4 weeks at both storage temperatures.

[3] = Stability as a function of pH, narrow range pH 2-3.6 (1 mg/mL in ~10 mM citric acid/glycine buffers)
Experimental: Accordingly, the stability of the compound was evaluated in the pH range 2-3.6.
Methodology: Buffer solutions containing ˜10 mM each of citric acid and glycine in the pH range 2-3.6 were prepared by titrating 250 mL of a single stock containing both buffer agents with 1N NaOH/1N HCl and removing 50 mL aliquots at predetermined pH values. Solutions at 1 mg/mL were prepared in the buffers by dissolving ˜25 mg of compound in ˜23 mL of a given buffer, adjusting the pH to the target and making up the volume to 25.0 mL in a volumetric flask.
Each of the buffered solutions was filtered through a 0.2 μm polyether sulfone syringe filter into a volumetric flask previously rinsed with 70% ethanol and dried in a laminar flow hood. Following filtration, each buffered solution was split into 9 aliquots in 5 mL serum vials previously rinsed with 70% ethanol and dried in a laminar flow hood. Filtration and preparation of aliquots were performed in a laminar flow hood. Of the nine aliquots, three aliquots were stored at each 40° C. and 60° C., two aliquots were stored at 25° C. and one aliquot was submitted for T0 testing. Samples were evaluated for pH, assay and related substances at T0 and, following 1 week, 2 weeks and 4 weeks of storage at 40° C. and 60° C. Samples stored at 25° C. served as controls to be analyzed if necessary.
This means that any increase in the pH of the formulation leads to an improvement in stability within the pH range in which an aqueous formulation is feasible.

[4] = Drug substance stability (API in closed Type I glass vials)
Experimental: Methodology: Approximately 100 mg of the API (Lot 009MSB058) were stored at each of 40° C. and 60° C. in closed Type I glass vials. Samples were analyzed for appearance and percent purity at T0 and after 1 week, 2 weeks and 4 weeks of storage.
Visually, there were no signs of degradation (i.e. discoloration etc.).

In the case of `CCCNc1nc(NCCC)nc(N(C)OC)n1` [active agent, N-(4,6-Bis-n-propylamino-[1,3,5]triazin-2-yl)-O,N-dimethyl-hydroxylamine], the pKa [1] is reported as 5.6, the “theoretical free base solubility” value [1] is reported as “about 0.18 mg/mL” and the “solution stability versus pH (in words)” value ([2]; assay and impurities data, pH 2 compared to pH 3-6) is reported as “significantly less stable at pH 2”. The Impurities ([2]; target pH 2, 40° C. 2 wk) was 1.48%, the Impurities ([2]; target pH 2, 40° C. 4 wk) was 2.49% and the Impurities ([2]; target pH 2, 60° C. 1 wk) was 3.83%. The Impurities ([2]; target pH 2, 60° C. 2 wk) was 9.89%, the Impurities ([2]; target pH 2, 60° C. 4 wk) was 14.34% and the Impurities ([2]; target pH 3, 40° C. 2 wk) was 0.19%. It also gave an Impurities ([2]; target pH 3, 40° C. 4 wk) of 0.41%, an Impurities ([2]; target pH 3, 60° C. 1 wk) of 0.71% and an Impurities ([2]; target pH 3, 60° C. 4 wk) of 2.19%. It also gave an Impurities ([2]; target pH 4, 40° C. 2 wk) of 0.17%, an Impurities ([2]; target pH 4, 40° C. 4 wk) of 0.22% and an Impurities ([2]; target pH 4, 60° C. 2 wk) of 0.52%. The Impurities ([2]; target pH 4, 60° C. 4 wk) was 1.02%, the Impurities ([2]; target pH 5, 60° C. 2 wk) was 0.62% and the Impurities ([2]; target pH 5, 60° C. 4 wk) was 1.10%. The Impurities ([2]; target pH 6, 40° C. 2 wk) was 0.25%, the Impurities ([2]; target pH 6, 40° C. 4 wk) was 0.28% and the Impurities ([2]; target pH 6, 60° C. 4 wk) was 1.65%. It also gave an Assay ([3]; target pH 2.0, 60° C. 4 wk) of 0.786, an Impurities ([3]; target pH 2.7, 60° C. 4 wk) of 3.9 and a pH ([3]; target pH 3.0, 60° C. 4 wk) of 3.00. For the same compound, the Assay ([3]; target pH 3.6, 60° C. 2 wk) was 0.958, the “drug substance stability (in words)” value ([4]; 4 weeks even at 60° C.) was “quite stable” and the Appearance ([4]; 40° C., T = 1 week) was “White”. For the same compound, the Purity ([4]; 40° C., T = 1 week) was 99.92%, the “Related Substances (Total)” value ([4]; 40° C., T = 1 week) was “Total 0.08” and the Appearance ([4]; 40° C., T = 2 week) was “White”. For the same compound, the Purity ([4]; 40° C., T = 2 week) was 99.90%, the “Related Substances (Total)” value ([4]; 40° C., T = 2 week) was “Total 0.10” and the Appearance ([4]; 40° C., T = 4 week) was “White”. The Purity ([4]; 40° C., T = 4 week) was 100.00%, the Appearance ([4]; 60° C., T = 1 week) was “powder” and the Purity ([4]; 60° C., T = 1 week) was 99.76%. For the same compound, the “Related Substances (Total)” value ([4]; 60° C., T = 1 week) was “Total 0.24”, the Appearance ([4]; 60° C., T = 2 week) was “powder” and the Purity ([4]; 60° C., T = 2 week) was 100.00%. The Appearance ([4]; 60° C., T = 4 week) was “powder”, the Purity ([4]; 60° C., T = 4 week) was 100.00% and the Appearance ([4]; T = 0) was “White”. For the same compound, the Purity ([4]; T = 0) was 100.00%.
